Results reported in patent US8008506B2, “Indazole compounds” (priority 2008, dated 2011).
pEC50: −log10 of the molar value. Like-named read-outs stand apart in the source and are kept apart here.

Assays:
Format in all cases: cell-based
[1] = biological target: T1, human β1 adrenergic receptor (Homo sapiens, UniProt P08588); experiment: Test Example 2-B: human β1 adrenergic receptor agonist activity (method of Test Example 1-B); conditions: for β1 receptor EC50: Table 2, Test Example 2-B; for Emax: read-out: β1 receptor I.A.
T1 construct: expressed in transfected cells; host or cells: CHO (Chinese Hamster Ovary) cells, pcDNA3
T1 sequence (P08588 whole entry): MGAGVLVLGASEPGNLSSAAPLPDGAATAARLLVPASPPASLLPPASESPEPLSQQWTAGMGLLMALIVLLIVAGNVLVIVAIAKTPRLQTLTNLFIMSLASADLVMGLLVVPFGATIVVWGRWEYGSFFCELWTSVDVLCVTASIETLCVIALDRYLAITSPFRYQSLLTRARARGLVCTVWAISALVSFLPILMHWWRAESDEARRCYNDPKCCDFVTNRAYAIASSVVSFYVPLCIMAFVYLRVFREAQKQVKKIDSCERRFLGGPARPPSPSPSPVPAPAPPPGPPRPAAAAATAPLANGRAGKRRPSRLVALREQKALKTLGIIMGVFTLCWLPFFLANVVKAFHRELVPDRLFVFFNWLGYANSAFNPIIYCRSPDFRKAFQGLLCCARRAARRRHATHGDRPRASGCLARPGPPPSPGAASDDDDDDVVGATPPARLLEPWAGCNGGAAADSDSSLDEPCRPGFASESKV
Experimental: (§1) The measurement of human β3 adrenergic receptor agonist activity is carried out using CHO (Chinese Hamster Ovary) cells transfected with pcDNA3 (manufactured by Invitrogen, Inc.) to which human β3 gene has been inserted. […] This human β3 cDNA fragment is used as a probe, and the full length human β3 gene is obtained from a human genomic library (manufactured by Clontech Laboratories, Inc.). The above cells are cultured in Ham's F-12 medium containing 10% fetal bovine serum and 400 μg/ml geneticin (manufactured by Invitrogen, Inc.). These cells are seeded on a 96-well plate to a concentration of 2×10^4 cells/well, and after being cultured for about 20 hours, the cells are left to stand in 80 μL of serum-free Ham's F-12 medium for 15 minutes. A test compound is initially dissolved in DMSO, and then is diluted stepwise with Ham's F-12 containing 100 mmol/L HEPES and 1 mmol/L isobutylmethylxanthine. 20 μL of the dilution is added to the cells. After the cells are cultured for 30 minutes, the medium is removed. 0.3. ml of the Assay/lysis Buffer included in cAMP-Screen kit (manufactured by Applied Biosystems, Inc.) is added to the cells, and the cells are incubated at 37° C. for 30 minutes. The resulting cell lysate is subjected to quantification of cAMP with the cAMP-Screen kit. […] Measurement of Human β1 Adrenergic Receptor Agonist Activity

[2] = biological target: T2, human α1A adrenergic receptor (Homo sapiens, UniProt P35348); experiment: Test Example 4: human α1A adrenergic receptor agonist activity (Ca flux, Fura-2, transfected HEK293 cells); conditions: for Emax: HEK293, read-out: α1A receptor I.A.
T2 construct: expressed in transfected cells; host or cells: HEK293 cells, pcDNA3.1(−), hygromycin B selection
T2 sequence (P35348 1-466): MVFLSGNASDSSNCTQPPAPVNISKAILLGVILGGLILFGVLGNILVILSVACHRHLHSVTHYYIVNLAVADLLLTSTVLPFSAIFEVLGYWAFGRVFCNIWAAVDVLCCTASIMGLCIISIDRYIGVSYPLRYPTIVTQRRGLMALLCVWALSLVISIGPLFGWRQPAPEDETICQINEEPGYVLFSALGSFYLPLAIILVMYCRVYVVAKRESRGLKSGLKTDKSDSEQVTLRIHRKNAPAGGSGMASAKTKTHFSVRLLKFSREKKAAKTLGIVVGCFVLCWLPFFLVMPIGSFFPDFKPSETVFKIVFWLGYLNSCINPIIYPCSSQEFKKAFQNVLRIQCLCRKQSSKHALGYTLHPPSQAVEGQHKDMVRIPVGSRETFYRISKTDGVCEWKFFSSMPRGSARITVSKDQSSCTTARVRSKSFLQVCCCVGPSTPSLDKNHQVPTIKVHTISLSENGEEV
Experimental: Measurement of Human α1A Adrenergic Receptor Agonist Activity
The measurement of human α1A adrenergic receptor agonist activity is carried out using HEK293 cells transfected with pcDNA3.1(−) (manufactured by Invitrogen, Inc.) to which human α1A gene has been inserted. These cells are cultured in DMEM medium containing 10% fetal bovine serum, 400 μg/ml hygromycin B (manufactured by Gibco BRL), 100 U/ml penicillin and 100 μg/ml streptomycin. […] The cells are loaded in a CO2 incubator for 30 minutes, and then are washed twice with the Assay Buffer to remove excess Fura-2AM. The cells are centrifuged, and then are prepared into a solution at 5×10^6 cells/ml with the Assay Buffer. Subsequently, the cells are dispensed on a 96-well plate (manufactured by Corning, Inc.) at a volume of 80 μl/well, and the plate is used as a cell plate. […] Subsequently, measurement of fluorescence intensity (excitation wavelength 340 nm and 380 nm, measurement wavelength 500 nm) is initiated at an interval of 2 seconds. After making measurements for about 30 seconds, 20 μl of the test sample from the sample plate is added to the cell plate, and measurements are further continued for 270 seconds. The Ca flux resulting from the test compound is calculated utilizing the difference between the maximum value of fluorescence intensity ratio at the wavelengths 340 nm and 380 nm after the addition of the test compound, and the fluorescence intensity ratio before the addition of the test compound, as the peak height.

[3] = biological target: T3, human β3 adrenergic receptor (Homo sapiens, UniProt P13945); experiment: Test Example 1-B: human β3 adrenergic receptor agonist activity (cAMP-Screen kit, transfected CHO cells, 96-well); conditions: for Emax: CHO, read-out: β3 receptor I.A.; for pEC50: Table 2, Test Example 1-B
T3 construct: the full length human β3 gene is obtained from a human genomic library; expressed in transfected cells; host or cells: CHO (Chinese Hamster Ovary) cells, pcDNA3, geneticin selection
T3 sequence (P13945 whole entry): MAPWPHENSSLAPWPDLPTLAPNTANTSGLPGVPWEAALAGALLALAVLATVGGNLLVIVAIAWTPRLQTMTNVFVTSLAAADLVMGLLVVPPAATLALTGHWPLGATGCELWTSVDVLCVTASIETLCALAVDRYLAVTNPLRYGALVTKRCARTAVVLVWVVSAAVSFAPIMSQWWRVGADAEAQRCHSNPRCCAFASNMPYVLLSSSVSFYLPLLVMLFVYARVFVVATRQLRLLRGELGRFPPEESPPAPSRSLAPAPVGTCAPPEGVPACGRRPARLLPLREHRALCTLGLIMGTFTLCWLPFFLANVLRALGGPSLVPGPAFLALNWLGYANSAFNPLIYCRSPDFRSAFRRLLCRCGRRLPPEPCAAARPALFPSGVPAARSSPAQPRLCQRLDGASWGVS
Experimental: Measurement of Human β3 Adrenergic Receptor Agonist Activity
The measurement of human β3 adrenergic receptor agonist activity is carried out using CHO (Chinese Hamster Ovary) cells transfected with pcDNA3 (manufactured by Invitrogen, Inc.) to which human β3 gene has been inserted. […] This human β3 cDNA fragment is used as a probe, and the full length human β3 gene is obtained from a human genomic library (manufactured by Clontech Laboratories, Inc.). The above cells are cultured in Ham's F-12 medium containing 10% fetal bovine serum and 400 μg/ml geneticin (manufactured by Invitrogen, Inc.). These cells are seeded on a 96-well plate to a concentration of 2×10^4 cells/well, and after being cultured for about 20 hours, the cells are left to stand in 80 μL of serum-free Ham's F-12 medium for 15 minutes. A test compound is initially dissolved in DMSO, and then is diluted stepwise with Ham's F-12 containing 100 mmol/L HEPES and 1 mmol/L isobutylmethylxanthine. 20 μL of the dilution is added to the cells. After the cells are cultured for 30 minutes, the medium is removed. 0.3. ml of the Assay/lysis Buffer included in cAMP-Screen kit (manufactured by Applied Biosystems, Inc.) is added to the cells, and the cells are incubated at 37° C. for 30 minutes. The resulting cell lysate is subjected to quantification of cAMP with the cAMP-Screen kit.

[4] = biological target: T4, human β2 adrenergic receptor (Homo sapiens, UniProt P07550); experiment: Test Example 3-B: human β2 adrenergic receptor agonist activity (method of Test Example 1-B); conditions: for β2 receptor EC50: Table 2, Test Example 3-B; for Emax: read-out: β2 receptor I.A.
T4 construct: expressed in transfected cells; host or cells: CHO (Chinese Hamster Ovary) cells, pcDNA3
T4 sequence (P07550 whole entry): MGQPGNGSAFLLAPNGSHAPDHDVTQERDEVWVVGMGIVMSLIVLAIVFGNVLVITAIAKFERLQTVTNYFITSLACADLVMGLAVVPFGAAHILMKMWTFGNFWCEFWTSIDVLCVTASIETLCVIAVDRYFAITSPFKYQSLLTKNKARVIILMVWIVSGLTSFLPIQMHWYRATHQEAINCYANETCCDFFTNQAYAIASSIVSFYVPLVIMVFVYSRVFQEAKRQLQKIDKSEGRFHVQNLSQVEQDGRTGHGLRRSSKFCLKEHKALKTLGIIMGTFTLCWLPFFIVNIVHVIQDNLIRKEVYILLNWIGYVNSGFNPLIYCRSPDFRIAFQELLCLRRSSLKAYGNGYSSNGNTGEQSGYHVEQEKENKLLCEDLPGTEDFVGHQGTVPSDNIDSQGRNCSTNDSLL
Experimental: [Worded in the source for another target; this target is reported under the same test.] as §1, with “β2” for “β1”

[5] = Table 2, Test Example 4, read-out: α1A receptor EC50

β1 receptor EC50 [1] | Emax [1] | Emax [2] | pEC50 [2, 5] | Emax [3] | pEC50 [3] | β2 receptor EC50 [4] | Emax [4] | pEC50 [2] | α1A receptor I.A. ([2]; Table 2, maximum response to norepinephrine taken as 100%) | SMILES
a) | 22% | 0% | < 5.70 | 65% | 7.89 | a) | 8% |  |  | CC(C)c1n[nH]c2cc(OCCNC[C@H](O)c3ccc(Cl)c(NS(C)(=O)=O)c3)ccc12 [Example 7, (R)-N-(2-chloro-5-(1-hydroxy-2-(2-(3-isopropylindazol-6-yloxy)ethylamino)ethyl)phenyl)methanesulfonamide]
a) | 8% | 15% | 5.89 | 53% | 7.39 | a) | 3% |  |  | CS(=O)(=O)Nc1cc([C@@H](O)CNCCOc2ccc3c(C(F)(F)F)n[nH]c3c2)ccc1F [Example 10, (R)-N-(2-fluoro-5-(1-hydroxy-2-(2-(3-(trifluoromethyl)indazol-6-yloxy)ethylamino)ethyl)phenyl)methanesulfonamide]
a) | 16% | 0% |  | 90% | 8.00 | b) | 0% | < 5.70 |  | Cc1n[nH]c2cc(OCCNC[C@H](O)c3cccc(NS(=O)(=O)c4ccccc4)c3)ccc12 [Example 14, (R)-N-(3-(1-hydroxy-2-(2-(3-methylindazol-6-yloxy)ethylamino)ethyl)phenyl)benzenesulfonamide]
b) | -2% | 20% | < 5.70 | 80% | 7.33 | b) | -3% |  |  | CCc1n[nH]c2cc(OCCNC[C@H](O)c3cccc(NS(=O)(=O)C(C)C)c3)ccc12 [Example 13, (R)-N-(3-(2-(2-(3-ethylindazol-6-yloxy)ethylamino)-1-hydroxyethyl)phenyl)propane-2-sulfonamide]
a) | 3% | 26% | 6.31 | 80% | 7.96 | a) | 5% |  |  | CCc1n[nH]c2cc(OCCNC[C@H](O)c3cccc(NS(=O)(=O)CC)c3)ccc12 [Example 20, (R)-N-(3-(2-(2-(3-ethylindazol-6-yloxy)ethylamino)-1-hydroxyethyl)phenyl)ethanesulfonamide]
b) | -1% | 34% |  | 84% | 7.08 | a) | 2% | 5.88 |  | Cc1n[nH]c2cc(OCCNC[C@H](O)c3cccc(NS(=O)(=O)C(C)C)c3)ccc12 [Example 12, (R)-N-(3-(1-hydroxy-2-(2-(3-methylindazol-6-yloxy)ethylamino)ethyl)phenyl)propane-2-sulfonamide]
a) | 1% | 0% | < 5.70 | 80% | 7.89 | b) | -3% |  |  | CCc1n[nH]c2cc(OCCNC[C@H](O)c3cccc(NS(=O)(=O)c4ccccc4)c3)ccc12 [Example 15, (R)-N-(3-(2-(2-(3-ethylindazol-6-yloxy)ethylamino)-1-hydroxyethyl)phenyl)benzenesulfonamide]
 |  | 100% |  |  |  |  |  |  | 100% | NC[C@H](O)c1ccc(O)c(O)c1 [Norepinephrine, reference compound]
